≈ marks a conversion by molar mass, not a printed value. Like-named read-outs stand apart in the source and are kept apart here.
Legend:
[1] = test system: platelet aggregation (Ex Vivo vs. ADP); test: Inhibition of platelet aggregation following oral administration (Ex vivo); type: in vivo; details: Rattus norvegicus, rats, oral by gavage, 2 hours after dosing
Method: This test is sometimes referred to in the art as an Ex vivo method and was initially described by Fleming, et al., Arch. Int. Pharmacodyn. Ther., 199, 164 (1972). Briefly, the assay is essentially carried out as follows.
Aggregometry is performed in vitro as previously described on platelet rich plasma samples obtained from rats dosed with either test compounds or the vehicle. In all cases, activity is determined 2 hours after the drug is administered orally at various doses by gavage as a suspension in […] plus a few drops of Tween 20.

[2] = test system: ferrets (right ventricular contractile force, blood pressure); test: In vivo inotropic activity in ferrets; parameters: species or system ferret; details: Mustela putorius, 1 h, intraduodenal
Method: This test is carried out in ferrets as follows. Fasted anesthetized ferrets are instrumented to study hemodynamic parameters as well as right ventricular contractile force (RVCF) using a Walton-Brodie open strain guage arch. Drugs are administered intraduodenally as solutions in DMSO (1 mL or less) and effects on myocardial contractile force and other parameters are monitored for 60 minutes after dosing. Changes in contractile force in response to drug treatment are expressed in terms of percent change from predose control.

[3] = test system: adenosine diphosphate (ADP)-induced platelet aggregation; test: In vitro inhibition of platelet aggregation, ADP-induced (rabbit platelet rich plasma); type: cell-based; details: Oryctolagus cuniculus, ADP 0.5 mcg/ml, read-out: Platelet Inhibition In Vitro - Rabbit PRP EC50 vs. ADP
Method: (§1) The aggregometer method of Born (1), as modified by Mustard, et al. (2) was used to assess the in vitro activity of the various compounds as to inhibition of adenosine diphosphate (ADP) and collagen-induced platelet aggregation. Platelet rich plasma (PRP) was separated by centrifugation from citrated (3.8 percent) rabbit blood. […] The various compounds tested were dissolved in dimethylsulfoxide (DMSO) so that 5 mcl added to the platelet rich plasma would yield the desired test concentration. Vehicle control trials were done and compared with aggregation induced in platelet rich plasma containing various concentrations of the test compounds. Dose response curves were obtained and Effective Concentration (EC50) values calculated.

[4] = target: T1, cAMP phosphodiesterase (human platelets) (Homo sapiens, UniProt Q14432); test: Inhibition of cyclic AMP phosphodiesterase; type: biochemical; details: PDE from human platelets
T1 construct: enzynme obtained from human platelets; from tissue; host or cells: human platelets
Method: This assay is carried out essentially as described by Thompson, et al., Methods in Enzymology, 38, 205-212 (1974). Briefly, tritium labeled cyclic adenosine monophosphate (cAMP) is incubated with a phosphodiesterase (PDE) enzynme obtained from human platelets which converts a portion of the cAMP to 5'AMP in culture tubes. This reaction is terminated by submerging the tubes in a boiling water bath after which they are placed on ice and an aliquot of snake venom is added to each tube. This, during a second incubation, converts the 5'AMP to adenosine. Ion exchange resin is added to bind the remaining cyclic AMP. The tubes are centrifuged to sediment the resin and a portion of the clear supernatent (which contains radioactive adenosine) is counted in a liquid scintillation counter. The cAMP phosphodiesterase inhibition activity of a test agent is determined by pre-incubating the PDE enzyme preparation with the test agent.

[5] = test system: collagen-induced platelet aggregation; test: In vitro inhibition of platelet aggregation, collagen-induced (rabbit platelet rich plasma); type: cell-based; details: Oryctolagus cuniculus, collagen suspension 0.05 ml, read-out: Platelet Inhibition In Vitro - Rabbit PRP EC50 vs. collagen
Method: as §1

[6] = anesthetized ferret, 3 mg/kg, 60 minutes, vs predose control, read-out: Maximum Percentage Change Right Ventricular Contractile Force (RVCF)
[7] = anesthetized ferret, 3 mg/kg, 60 minutes, read-out: Maximum Percentage Change Blood Pressure

T1 sequence (Q14432 whole entry): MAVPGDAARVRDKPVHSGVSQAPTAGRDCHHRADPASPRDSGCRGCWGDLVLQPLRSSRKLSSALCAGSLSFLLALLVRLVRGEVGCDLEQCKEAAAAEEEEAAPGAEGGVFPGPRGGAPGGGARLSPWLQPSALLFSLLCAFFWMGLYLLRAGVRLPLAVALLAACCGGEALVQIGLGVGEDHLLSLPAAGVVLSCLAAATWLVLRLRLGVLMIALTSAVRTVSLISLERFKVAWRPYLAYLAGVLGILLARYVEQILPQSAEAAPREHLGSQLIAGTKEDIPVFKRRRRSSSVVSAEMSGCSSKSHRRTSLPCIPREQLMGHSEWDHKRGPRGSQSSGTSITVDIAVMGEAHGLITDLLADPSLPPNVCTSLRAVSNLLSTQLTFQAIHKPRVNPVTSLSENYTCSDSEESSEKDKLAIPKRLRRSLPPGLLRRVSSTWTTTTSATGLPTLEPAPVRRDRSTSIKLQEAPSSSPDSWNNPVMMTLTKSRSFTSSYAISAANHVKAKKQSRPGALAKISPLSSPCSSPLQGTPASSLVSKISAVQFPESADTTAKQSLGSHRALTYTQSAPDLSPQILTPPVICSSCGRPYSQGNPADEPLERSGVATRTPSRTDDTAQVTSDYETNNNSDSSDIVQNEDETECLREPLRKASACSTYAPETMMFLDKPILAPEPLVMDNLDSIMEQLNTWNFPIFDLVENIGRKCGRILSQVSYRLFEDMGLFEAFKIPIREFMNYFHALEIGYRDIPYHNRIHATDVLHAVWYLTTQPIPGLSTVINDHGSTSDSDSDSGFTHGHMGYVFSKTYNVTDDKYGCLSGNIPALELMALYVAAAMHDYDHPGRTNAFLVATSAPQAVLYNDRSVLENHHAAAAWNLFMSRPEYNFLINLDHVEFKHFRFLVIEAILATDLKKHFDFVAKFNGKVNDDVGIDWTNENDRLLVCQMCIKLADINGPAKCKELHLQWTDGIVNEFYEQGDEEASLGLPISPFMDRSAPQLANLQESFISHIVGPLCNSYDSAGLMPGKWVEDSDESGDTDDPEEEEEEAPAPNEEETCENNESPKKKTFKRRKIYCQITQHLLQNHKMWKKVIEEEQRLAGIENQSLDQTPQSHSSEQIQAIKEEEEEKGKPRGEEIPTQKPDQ

Structure (SMILES)	change in vivo at 3 mg/kg [2, 6]	change in vivo at 3 mg/kg [2, 7]	EC50 [3]	IC50 [4]	EC50 [5]	also measured
COC(=O)CCCOc1ccc2nc3[nH]c(=O)n(C)c3cc2c1 [Example 11, Methyl 4-[(2,3-Dihydro-1-methyl-2-oxo-1H-imidazo[4,5-b]quinolin-7-yl)oxy]butanoat]	-10%	-4%	–	–	–	ED50 [1]: 15.7 mg/kg
CN(C(=O)CCCCOc1ccc2nc3nc(O)n(C)c3cc2c1)C1CCCCC1 [Example 27, N-Cyclohexyl-5-[(2,3-dihydro-1-methyl-2-oxo-1H-imidazo[4,5-b]quinolin-7-yl)oxy]N-methylpentanamide]	35%	-24%	0.06 µg/mL (≈ 0.146 µM)	500 nM	–	–
CN(C(=O)CCCOc1ccc2nc3nc(O)n(C)c3cc2c1)C1CCCCCC1 [Example 23, N-Cycloheptyl-4-[(2,3-dihydro-1-methyl-2-oxo-1H-imidazo[4,5-b]quinolin-7-yl)oxy]-N-methylbutanamide]	24%	-16%	0.03 µg/mL (≈ 0.0731 µM)	30000 nM	0.005 µg/mL (≈ 0.0122 µM)	–
CC(C)NCC(O)COc1ccc2nc3[nH]c(=O)[nH]c3cc2c1 (stereo not shown) [Example 43, 1,3-Dihydro-7-[2-hydroxy-3-[(1-methylethyl)amino]propoxy]-2H-imidazo[4,5-b]quinolin-2-one]	–	–	> 32 µg/mL	300 nM	> 32 µg/mL	–
Cn1c(=O)[nH]c2nc3ccc(OCCCC(=O)N4CCCCC4)cc3cc21 [Example 25, 1-[4-[(2,3-Dihydro-1-methyl-2-oxo-1H-imidazo[4,5-b]quinolin-7-yl)oxy]-1-oxobutyl]piperidine]	–	–	4 µg/mL (≈ 10.9 µM)	–	0.8 µg/mL (≈ 2.17 µM)	–
Cc1[nH]c(=O)c(C#N)cc1-c1ccncc1 [milrinone, reference compound]	–	–	–	–	–	change in vivo at 3 mg/kg ([2]; read-out: Maximum Percentage Change Right Ventricular Contractile Force (RVCF)): 52%
CCN(CC)CCOc1ccc2nc3[nH]c(=O)[nH]c3cc2c1 [Example 34, 7-[(2-Diethylamino)ethoxy]-1,3-dihydro-2H-imidazo[4,5-b]quinolin-2-one]	–	–	1.5 µg/mL (≈ 4.99 µM)	–	0.4 µg/mL (≈ 1.33 µM)	–
O=C(CCCOc1ccc2nc3[nH]c(=O)[nH]c3cc2c1)N1CCCCC1 [Example 24, 1-[4-[(2,3-Dihydro-2-oxo-1H-imidazo[4,5-b]quinolin-7-yl)oxy]-1-oxobutyl]piperidine]	32%	-19%	0.04 µg/mL (≈ 0.113 µM)	20 nM	–	–
O=C(CCCOc1ccc2nc3[nH]c(=O)[nH]c3cc2c1)N1CCOCC1 [Example 15]	2%	-5%	–	–	0.007 µg/mL (≈ 0.0196 µM)	–
CN(C(=O)CCCOc1ccc2nc3[nH]c(=O)[nH]c3cc2c1)C1CCCCCC1 [Example 22, N-Cycloheptyl-N-methyl-4-[(2,3-dihydro-2-oxo-1H-imidazo[4,5-b]quinolin-7-yl)oxy]butanamide]	–	–	0.007 µg/mL (≈ 0.0177 µM)	–	0.002 µg/mL (≈ 0.00504 µM)	ED50 [1]: 6.2 mg/kg; change in vivo at 0.3 mg/kg ([2]; anesthetized ferret, 60 minutes, vs predose control, read-out: Maximum Percentage Change Right Ventricular Contractile Force (RVCF)): 29 ± 5%; change in vivo at 0.3 mg/kg ([2]; anesthetized ferret, 60 minutes, read-out: Maximum Percentage Change Blood Pressure): -26 ± 4%
OCCN(CCO)c1nc(N2CCCCC2)c2nc(N(CCO)CCO)nc(N3CCCCC3)c2n1 [dipyridamole, reference compound]	–	–	> 512 µg/mL	–	–	ED50 [1]: > 100 mg/kg
Cn1c(=O)[nH]c2nc3ccc(OCCCC(=O)O)cc3cc21 [Example 6, 4-[(2,3-Dihydro-1-methyl-2-oxo-1H-imidazo[4,5-b]quinolin-7-yl)oxy]butanoic Acid]	–	–	> 32 µg/mL	600 nM	> 32 µg/mL	–
Cn1c(O)nc2nc3ccc(OCCCCC(=O)O)cc3cc21 [Example 9, 5-[(2,3-Dihydro-1-methyl-2-oxo-1H-imidazo[4,5-b]quinolin-7-yl)oxy]pentanoicAcid]	–	–	> 32 µg/mL	800 nM	> 32 µg/mL	–
Cn1c(=O)[nH]c2nc3ccc(OCCCC(=O)NC4CCCCC4)cc3cc21 [Example 19, N-Cyclohexyl-4-[(2,3-dihydro-1-methyl-2-oxo 1H-imidazo[4,5-b]quinolin-7-yl)oxy]butanamide]	–	–	0.07 µg/mL (≈ 0.183 µM)	700 nM	0.009 µg/mL (≈ 0.0235 µM)	ED50 [1]: 8.3 mg/kg
O=C(O)CCCCOc1ccc2nc3[nH]c(=O)[nH]c3cc2c1 [Example 8, 5-[(2,3-Dihydro-2-oxo-1H-imidazo[4,5-b]quinolin-7-yl)oxy]pentanoic Acid]	–	–	> 32 µg/mL	–	> 32 µg/mL	–
O=C(CCCOc1ccc2nc3[nH]c(=O)[nH]c3cc2c1)N1CCN(c2ccccc2)CC1 [Example 26, 1-[4-[(2,3-Dihydro-2-oxo-1H-imidazo[4,5-b]quinolin-7-yl)oxy]-1-oxobutyl]-4-phenylpiperazine]	–	–	0.125 µg/mL (≈ 0.29 µM)	2 nM	0.009 µg/mL (≈ 0.0209 µM)	–
CC(C)N1CC(COc2ccc3nc4[nH]c(=O)[nH]c4cc3c2)OC1=O (stereo not shown) [Example 41, 1,3-Dihydro-7-[[3-(1-methylethyl)-2-oxo-5-oxazolidinyl]methoxy]-2H-imidazo[4,5-b]quinolin-2-one]	–	–	3 µg/mL (≈ 8.76 µM)	60 nM	7 µg/mL (≈ 20.4 µM)	–
COC(=O)CCCCOc1ccc2nc3[nH]c(=O)[nH]c3cc2c1 [Example 13, Methyl 5-[(2,3-Dihydro-2-oxo-1H-imidazo[4,5-b]quinolin-7-yl)oxy]pentanoate]	–	–	0.3 µg/mL (≈ 0.951 µM)	–	–	–
O=C(O)CCCOc1ccc2nc3[nH]c(=O)[nH]c3cc2c1 [Example 4, 4-[(2,3-Dihydro-2-oxo-1H-imidazo[4,5-b]quinolin-7-yl)oxy]butanoic Acid]	3 ± 5%	-3 ± 2%	–	–	–	ED50 [1]: 3.4 mg/kg
CN(C(=O)CCCCOc1ccc2nc3[nH]c(=O)n(C)c3cc2c1)C1CCCCCC1 [Example 28, N-Cycloheptyl-5-[(2,3-dihydro-1-methyl-2-oxo-1H-imidazo[4,5-b]quinolin-7-yl)oxy]-N-methylpentanamide]	27%	-12%	0.06 µg/mL (≈ 0.141 µM)	600 nM	–	–
CCOC(=O)COc1ccc2nc3[nH]c(=O)[nH]c3cc2c1 [Example 12, Ethyl [(2,3-Dihydro-2-oxo-1H-imidazo[4,5-b]quinolin-7-yl)oxy]acetate]	–	–	8 µg/mL (≈ 27.8 µM)	–	2.5 µg/mL (≈ 8.7 µM)	–
COC(=O)CCCCOc1ccc2nc3nc(O)n(C)c3cc2c1 [Example 14, Methyl 5-[(2,3-Dihydro-1-methyl-2-oxo 1H-imidazo[4,5-b]quinolin-7-yl)oxy]pentanoate]	–	–	3 µg/mL (≈ 9.11 µM)	5000 nM	–	–
CC(C)(C)N1CC(COc2ccc3nc4[nH]c(=O)[nH]c4cc3c2)OC1=O (stereo not shown) [Example 42, 7-[[3-(1,1-Dimethylethyl)-2-oxooxazolidin-5-yl]methoxy]-1H-imidazo[4,5-b]quinolin-2(3H)-one]	–	–	6 µg/mL (≈ 16.8 µM)	70 nM	0.4 µg/mL (≈ 1.12 µM)	–
O=c1[nH]c2cc3cc(OCCCCS(=O)(=O)c4ccccc4)ccc3nc2[nH]1 [Example 35, 7-[4-(Phenylsulfonyl)butoxy]-1,3-dihydro-2H-imidazo[4,5-b]quinolin-2-one]	11 ± 5%	-10 ± 8%	0.07 µg/mL (≈ 0.176 µM)	1 nM	–	ED50 [1]: 4.3 mg/kg
O=C(O)COc1ccc2[nH]c3nc(O)nc-3cc2c1 [Example 7, 2-[(1,3-Dihydro-2-oxo-2H-imidazo[4,5-b]quinolin-7-yl)oxy]acetic Acid]	–	–	–	70 nM	–	–
Oc1nc2cc3cc(OCCCCc4nnnn4C4CCCCC4)ccc3[nH]c-2n1 [Example 36, 7-[4-(1-Cyclohexyl-1H-tetrazol-5-yl)butoxy]-1,3-dihydro-2H-imidazo[4,5-b]quinolin-2-one]	–	–	–	4 nM	0.02 µg/mL (≈ 0.0491 µM)	–
O=C(CCCOc1ccc2nc3[nH]c(=O)[nH]c3cc2c1)NC1CCCCC1 [Example 18, N-Cyclohexyl-4-[(2,3-dihydro-2-oxo-1H-imidazo[4,5-b]quinolin-7-yl)oxy]butanamide]	5%	-8%	0.015 µg/mL (≈ 0.0407 µM)	–	0.0025 µg/mL (≈ 0.00679 µM)	–
